{"source": "ChEMBL document CHEMBL1134764", "about": "“Inhibition of RANTES/CCR1-mediated chemotaxis by cosalane and related compounds” (Bioorg Med Chem Lett, 2001)", "note": "pIC50: −log10 of the molar value."}
{"target": "T1, C-C chemokine receptor type 1 (Homo sapiens, UniProt P32246)", "T1 sequence (P32246 whole entry)": "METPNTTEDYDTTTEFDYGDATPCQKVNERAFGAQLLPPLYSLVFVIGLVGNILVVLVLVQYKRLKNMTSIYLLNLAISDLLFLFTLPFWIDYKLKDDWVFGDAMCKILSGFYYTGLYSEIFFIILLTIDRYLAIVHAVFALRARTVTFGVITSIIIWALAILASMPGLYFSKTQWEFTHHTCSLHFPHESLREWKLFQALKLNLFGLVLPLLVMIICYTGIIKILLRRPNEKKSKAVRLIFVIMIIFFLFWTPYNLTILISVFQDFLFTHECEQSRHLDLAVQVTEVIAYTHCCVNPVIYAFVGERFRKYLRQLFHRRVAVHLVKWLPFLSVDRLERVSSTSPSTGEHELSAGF", "assay": "Compound was evaluated for the inhibition of RANTES-induced migration of human embryonic kidney (CCR1/HEK) cell transfectants; NA: not active; call rule not given here", "type": "functional"}
{"compound": "CC(C)CCCC(C)[C@H]1CC[C@H]2[C@@H]3CCC4C[C@@H](CCC=C(c5cc(Cl)c(OCc6ccc(C(=O)[O-])cc6)c(C(=O)[O-])c5)c5cc(Cl)c(OCc6ccc(C(=O)[O-])cc6)c(C(=O)[O-])c5)CC[C@]4(C)[C@H]3CC[C@]12C.[Na+].[Na+].[Na+].[Na+]", "note": "(stereo partly specified)", "IC50": "Not Active"}
{"test_system": "not listed separately", "assay": "Compound was evaluated for the inhibition of RANTES-induced migration of human monocytes", "type": "functional"}
{"compound": "CC(C)CCCC(C)[C@H]1CC[C@H]2[C@@H]3CCC4C[C@@H](CCC=C(c5cc(Cl)c(OCc6cccc(B(O)O)c6)c(C(=O)O)c5)c5cc(Cl)c(OCc6cccc(B(O)O)c6)c(C(=O)O)c5)CC[C@]4(C)[C@H]3CC[C@]12C", "note": "(stereo partly specified)", "pIC50": 5.66}
{"compound": "CC(C)CCCC(C)[C@H]1CC[C@H]2[C@@H]3CCC4C[C@@H](CCC=C(c5cc(Cl)c(OCc6ccc(-c7cccc(C(=O)O)c7)cc6)c(C(=O)O)c5)c5cc(Cl)c(OCc6ccc(-c7cccc(C(=O)O)c7)cc6)c(C(=O)O)c5)CC[C@]4(C)[C@H]3CC[C@]12C", "note": "(stereo partly specified)", "pIC50": 5.52}
{"compound": "CSCC[C@H](NC(=O)c1cc(C(=CCC[C@H]2CC[C@@]3(C)C(CC[C@H]4[C@@H]5CC[C@H](C(C)CCCC(C)C)[C@@]5(C)CC[C@@H]43)C2)c2cc(Cl)c(O)c(C(=O)N[C@@H](CCSC)C(=O)O)c2)cc(Cl)c1O)C(=O)O", "note": "(stereo partly specified)", "pIC50": 6.09}
{"compound": "CC(C)CCCC(C)[C@H]1CC[C@H]2[C@@H]3CCC4C[C@@H](CCC=C(c5cc(Cl)c(OCc6cccc(C(=O)O)c6)c(C(=O)O)c5)c5cc(Cl)c(OCc6cccc(C(=O)O)c6)c(C(=O)O)c5)CC[C@]4(C)[C@H]3CC[C@]12C", "note": "(stereo partly specified)", "pIC50": 5.00}
{"compound": "CC(C)CCCC(C)[C@H]1CC[C@H]2[C@@H]3CCC4C[C@@H](CCC=C(c5cc(Cl)c(OCc6ccccc6C(=O)O)c(C(=O)O)c5)c5cc(Cl)c(OCc6ccccc6C(=O)O)c(C(=O)O)c5)CC[C@]4(C)[C@H]3CC[C@]12C", "note": "(stereo partly specified)", "pIC50": 5.41}
{"compound": "CC(C)CCCC(C)[C@H]1CC[C@H]2[C@@H]3CCC4C[C@@H](CCC=C(c5cc(Cl)c(O)c(C(=O)O)c5)c5cc(Cl)c(O)c(C(=O)O)c5)CC[C@]4(C)[C@H]3CC[C@]12C", "note": "(stereo partly specified)", "pIC50": 6.12}
{"compound": "CC(C)CCCC(C)[C@H]1CC[C@H]2[C@@H]3CCC4C[C@@H](CCC=C(c5cc(Cl)c(OCc6cccc([N+](=O)[O-])c6)c(C(=O)O)c5)c5cc(Cl)c(OCc6cccc([N+](=O)[O-])c6)c(C(=O)O)c5)CC[C@]4(C)[C@H]3CC[C@]12C", "note": "(stereo partly specified)", "pIC50": 5.46}
{"test_system": "not listed separately", "assay": "Compound was evaluated for the inhibition of RANTES-induced migration of human monocytes; NA: not active", "type": "functional"}
{"compound": "CC(C)CCCC(C)[C@H]1CC[C@H]2[C@@H]3CCC4C[C@@H](CCC=C(c5cc(Cl)c(O)c(C(=O)N[C@@H](CC(=O)O)C(=O)O)c5)c5cc(Cl)c(O)c(C(=O)N[C@@H](CC(=O)O)C(=O)O)c5)CC[C@]4(C)[C@H]3CC[C@]12C", "note": "(stereo partly specified)", "IC50": "Not Active"}
{"compound": "COc1c(COc2c(Cl)cc(C(=CCC[C@H]3CC[C@@]4(C)C(CC[C@H]5[C@@H]6CC[C@H](C(C)CCCC(C)C)[C@@]6(C)CC[C@@H]54)C3)c3cc(Cl)c(OCc4cccc(C(=O)O)c4OC)c(C(=O)[O-])c3)cc2C(=O)[O-])cccc1C(=O)O.[Na+].[Na+]", "note": "(stereo partly specified)", "IC50": "Not Active"}
{"compound": "CC(C)CCCC(C)[C@H]1CC[C@H]2[C@@H]3CCC4C[C@@H](CCC=C(c5cc(Cl)c(OCc6ccccc6B([O-])O)c(C(=O)[O-])c5)c5cc(Cl)c(OCc6ccccc6B([O-])O)c(C(=O)[O-])c5)CC[C@]4(C)[C@H]3CC[C@]12C.[Na+].[Na+].[Na+].[Na+]", "note": "(stereo partly specified)", "IC50": "Not Active"}
{"compound": "CC(C)CCCC(C)[C@H]1CC[C@H]2[C@@H]3CCC4C[C@@H](CCC=C(c5cc(Cl)c(O)c(C(=O)N[C@@H](Cc6ccccc6)C(=O)O)c5)c5cc(Cl)c(O)c(C(=O)N[C@@H](Cc6ccccc6)C(=O)O)c5)CC[C@]4(C)[C@H]3CC[C@]12C", "note": "(stereo partly specified)", "IC50": "Not Active"}
{"compound": "CC(C)CCCC(C)[C@H]1CC[C@H]2[C@@H]3CCC4C[C@@H](CCC=C(c5cc(Cl)c(OCc6ccc(C(=O)O)cc6)c(C(=O)[O-])c5)c5cc(Cl)c(OCc6ccc(C(=O)O)cc6)c(C(=O)[O-])c5)CC[C@]4(C)[C@H]3CC[C@]12C.[Na+].[Na+]", "note": "(stereo partly specified)", "IC50": "Not Active"}
{"compound": "CC(C)CCCC(C)[C@H]1CC[C@H]2[C@@H]3CCC4C[C@@H](CCC=C(c5cc(Cl)c(OCc6ccc(B([O-])O)cc6)c(C(=O)[O-])c5)c5cc(Cl)c(OCc6ccc(B([O-])O)cc6)c(C(=O)[O-])c5)CC[C@]4(C)[C@H]3CC[C@]12C.[Na+].[Na+].[Na+].[Na+]", "note": "(stereo partly specified)", "IC50": "Not Active"}
{"compound": "CC(C)CCCC(C)[C@H]1CC[C@H]2[C@@H]3CCC4C[C@@H](CCC=C(c5cc(Cl)c(OCc6ccc(C(=O)[O-])cc6)c(C(=O)[O-])c5)c5cc(Cl)c(OCc6ccc(C(=O)[O-])cc6)c(C(=O)[O-])c5)CC[C@]4(C)[C@H]3CC[C@]12C.[Na+].[Na+].[Na+].[Na+]", "note": "(stereo partly specified)", "IC50": "Not Active"}
{"compound": "CC(C)CCCC(C)[C@H]1CC[C@H]2[C@@H]3CCC4C[C@@H](CCC=C(c5cc(Cl)c(O)c(C(=O)N[C@@H](CCC(=O)O)C(=O)O)c5)c5cc(Cl)c(O)c(C(=O)N[C@@H](CCC(=O)O)C(=O)O)c5)CC[C@]4(C)[C@H]3CC[C@]12C", "note": "(stereo partly specified)", "IC50": "Not Active"}
